Test results reported in the supplement of paper PMC11061612.

What was measured:
Capivasertib = compound: C1CN(CCC1(C(=O)N[C@@H](CCO)C2=CC=C(C=C2)Cl)N)C3=NC=NC4=C3C=CN4 [Capivasertib]; details: max 10 µM
Outline: (§1)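 Cancer cell lines were seeded in 1536-well plates in 7.5 μl DMEM/F12 or RPMI with 10% FBS, held 24 hours at 37°C and 5% CO2, then dosed for 72 hours (final DMSO typically 0.2%). Viability was read by CellTiter-Glo 2.0 luminescence and scaled between blank-well and DMSO-well means. The single-agent IC50 comes from dose responses fitted to a two-parameter logistic curve with a non-linear mixed effects model.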

AZD1775 = compound: C=CCn1c(=O)c2cnc(Nc3ccc(N4CCN(C)CC4)cc3)nc2n1-c1cccc(C(C)(C)O)n1 [AZD1775]
Outline: as §1

Trametinib = compound: CC(=O)Nc1cccc(-n2c(=O)n(C3CC3)c(=O)c3c(Nc4ccc(I)cc4F)n(C)c(=O)c(C)c32)c1 [Trametinib]; details: max 1 µM
Outline: as §1

Palbociclib = compound: CC(=O)c1c(C)c2cnc(Nc3ccc(N4CCNCC4)cn3)nc2n(C2CCCC2)c1=O [Palbociclib]; details: max 10 µM
Outline: as §1

AZD1390 = compound: CC(C)n1c(=O)n(C)c2cnc3cc(F)c(-c4ccc(OCCCN5CCCCC5)nc4)cc3c21 [AZD1390]; details: max 0.3 µM
Outline: as §1

Venetoclax = compound: CC1(C)CCC(CN2CCN(c3ccc(C(=O)NS(=O)(=O)c4ccc(NCC5CCOCC5)c([N+](=O)[O-])c4)c(Oc4cnc5[nH]ccc5c4)c3)CC2)=C(c2ccc(Cl)cc2)C1 [Venetoclax]; details: max 1 µM
Outline: as §1

Dasatinib = compound: CC1=C(C(=CC=C1)Cl)NC(=O)C2=CN=C(S2)NC3=CC(=NC(=N3)C)N4CCN(CC4)CCO [Dasatinib]; details: max 2 µM
Outline: as §1

SG3199 = compound: CC1=CN2[C@@H](C1)C=NC3=CC(=C(C=C3C2=O)OC)OCCCCCOC4=C(C=C5C(=C4)N=C[C@@H]6CC(=CN6C5=O)C)OC [SG3199]; details: max 0.001 µM
Outline: as §1

AZD2811 = compound: CCN(CCO)CCCOc1ccc2c(Nc3cc(CC(=O)Nc4cccc(F)c4)[nH]n3)ncnc2c1 [AZD2811]; details: max 1 µM
Outline: as §1

SN-38 = compound: CCc1c2c(nc3ccc(O)cc13)-c1cc3c(c(=O)n1C2)COC(=O)[C@]3(O)CC [SN-38]; details: max 0.3 µM
Outline: as §1

AZD0156 = compound: CN(C)CCCOc1ccc(-c2ccc3ncc4c(c3c2)n(C2CCOCC2)c(=O)n4C)cn1 [AZD0156]
Outline: as §1

AZD4320 = compound: CN(CC[C@H](CSC1=CC=CC=C1)NC2=C(C=C(C=C2)S(=O)(=O)NC(=O)C3=CC=C(C=C3)N4CCC(CC4)[C@H](C5=CC=CC=C5C6=CC=C(C=C6)Cl)O)S(=O)(=O)C(F)(F)F)CCO [AZD4320]; details: max 1 µM
Outline: as §1

Alisertib = compound: COc1cc(Nc2ncc3c(n2)-c2ccc(Cl)cc2C(c2c(F)cccc2OC)=NC3)ccc1C(=O)O [Alisertib]; details: max 10 µM
Outline: as §1

Gefitinib = compound: COc1cc2ncnc(Nc3ccc(F)c(Cl)c3)c2cc1OCCCN1CCOCC1 [Gefitinib]; details: max 10 µM
Outline: as §1

Prexasertib = compound: COc1cccc(OCCCN)c1-c1cc(Nc2cnc(C#N)cn2)n[nH]1 [Prexasertib]; details: max 1 µM
Outline: as §1

Doxorubicin = compound: COc1cccc2c1C(=O)c1c(O)c3c(c(O)c1C2=O)C[C@@](O)(C(=O)CO)C[C@@H]3O[C@H]1C[C@H](N)[C@H](O)[C@H](C)O1 [Doxorubicin]; details: max 1 µM
Outline: as §1

AZD5153 = compound: COc1nnc2ccc(N3CCC(c4ccc(OCCN5CCN(C)C(=O)[C@H]5C)cc4)CC3)nn12 [AZD5153]; details: max 1 µM
Outline: as §1

Lapatinib = compound: CS(=O)(=O)CCNCc1ccc(-c2ccc3ncnc(Nc4ccc(OCc5cccc(F)c5)c(Cl)c4)c3c2)o1 [Lapatinib]; details: max 10 µM
Outline: as §1

AZD8186 = compound: C[C@@H](Nc1cc(F)cc(F)c1)c1cc(C(=O)N(C)C)cc2c(=O)cc(N3CCOCC3)oc12 [AZD8186]
Outline: as §1

Crizotinib = compound: C[C@@H](Oc1cc(-c2cnn(C3CCNCC3)c2)cnc1N)c1c(Cl)ccc(F)c1Cl [Crizotinib]; details: max 10 µM
Outline: as §1

Savolitinib = compound: C[C@@H](c1ccc2nccn2c1)n1nnc2ncc(-c3cnn(C)c3)nc21 [Savolitinib]; details: max 1 µM
Outline: as §1

AZD6738 = compound: C[C@@H]1COCCN1C2=NC(=NC(=C2)C3(CC3)[S@](=N)(=O)C)C4=C5C=CNC5=NC=C4 [AZD6738]; details: max 10 µM
Outline: as §1

AZD5991 = compound: Cc1c2c(nn1C)CSCc1cc(n(C)n1)CSc1cc(c3ccccc3c1)OCCCc1c(C(=O)O)n(C)c3c-2c(Cl)ccc13 [AZD5991]; details: max 1 µM
Outline: as §1

AZD7648 = compound: Cc1cc2ncnn2cc1Nc1ncc2c(n1)n(C1CCOCC1)c(=O)n2C [AZD7648]; details: max 10 µM
Outline: as §1

Taselisib = compound: Cc1nc(-c2cn3c(n2)-c2ccc(-c4cnn(C(C)(C)C(N)=O)c4)cc2OCC3)n(C(C)C)n1 [Taselisib]; details: max 10 µM
Outline: as §1

Selumetinib = compound: Cn1cnc2c(F)c(Nc3ccc(Br)cc3Cl)c(C(=O)NOCCO)cc21 [Selumetinib]; details: max 10 µM
Outline: as §1

MK-2206 = compound: NC1(c2ccc(-c3nc4ccn5c(=O)[nH]nc5c4cc3-c3ccccc3)cc2)CCC1 [MK-2206]; details: max 10 µM
Outline: as §1

Olaparib = compound: O=C(c1cc(Cc2n[nH]c(=O)c3ccccc23)ccc1F)N1CCN(C(=O)C2CC2)CC1 [Olaparib]; details: max 10 µM
Outline: as §1

Carboplatin = compound: C1CC(C1)(C(=O)[O-])C(=O)[O-].N.N.[Pt+2] [Carboplatin]; details: max 10 µM
Outline: as §1

AZD5363 = compound: C1CN(CCC1(C(=O)N[C@@H](CCO)C2=CC=C(C=C2)Cl)N)C3=NC=NC4=C3C=CN4 [AZD5363]; details: max 10 µM
Outline: as §1

Paclitaxel = compound: CC(=O)O[C@H]1C(=O)[C@@]2(C)[C@H]([C@H](OC(=O)c3ccccc3)[C@]3(O)C[C@H](OC(=O)[C@H](O)[C@@H](NC(=O)c4ccccc4)c4ccccc4)C(C)=C1C3(C)C)[C@]1(OC(C)=O)CO[C@@H]1C[C@@H]2O [Paclitaxel]; details: max 3 µM
Outline: as §1

Etoposide = compound: COc1cc([C@@H]2c3cc4c(cc3[C@@H](O[C@@H]3O[C@@H]5CO[C@@H](C)O[C@H]5[C@H](O)[C@H]3O)[C@H]3COC(=O)[C@H]23)OCO4)cc(OC)c1O [Etoposide]; details: max 10 µM
Outline: as §1

SRA737 = compound: N#Cc1cnc(Nc2cc(NC[C@H]3CNCCO3)c(C(F)(F)F)cn2)cn1 [SRA737]; details: max 10 µM
Outline: as §1

Gemcitabine = compound: Nc1ccn([C@@H]2O[C@H](CO)[C@@H](O)C2(F)F)c(=O)n1 [Gemcitabine]; details: max 0.3 µM
Outline: as §1

[1] = compound: O=C(Nc1ccc2[nH]nc(-c3ccncc3)c2c1)[C@@H]1CCN(CC(=O)N2CCN(c3ccc(-c4ncccn4)cc3)CC2)C1; details: max 5 µM
Outline: as §1

5-Fluorouracil = compound: O=c1[nH]cc(F)c(=O)[nH]1 [5-Fluorouracil]; details: max 20 µM
Outline: as §1

Row | Cell Line | IC50, cell viability 72 h (Capivasertib) | IC50, cell viability 72 h (AZD1775; max 3 µM) | IC50, cell viability 72 h (Trametinib) | IC50, cell viability 72 h (Palbociclib) | IC50, cell viability 72 h (AZD1390) | IC50, cell viability 72 h (Venetoclax) | IC50, cell viability 72 h (Dasatinib) | IC50, cell viability 72 h (SG3199) | IC50, cell viability 72 h (AZD2811) | IC50, cell viability 72 h (SN-38) | IC50, cell viability 72 h (AZD0156; max 3 µM) | IC50, cell viability 72 h (AZD4320) | IC50, cell viability 72 h (Alisertib) | IC50, cell viability 72 h (Gefitinib) | IC50, cell viability 72 h (Prexasertib) | IC50, cell viability 72 h (Doxorubicin) | IC50, cell viability 72 h (AZD5153) | IC50, cell viability 72 h (Lapatinib) | IC50, cell viability 72 h (AZD8186; max 3 µM) | IC50, cell viability 72 h (Crizotinib) | IC50, cell viability 72 h (Savolitinib) | IC50, cell viability 72 h (AZD6738) | IC50, cell viability 72 h (AZD5991) | IC50, cell viability 72 h (AZD7648) | IC50, cell viability 72 h (Taselisib) | IC50, cell viability 72 h (Selumetinib) | IC50, cell viability 72 h (MK-2206) | IC50, cell viability 72 h (Olaparib) | IC50, cell viability 72 h (Carboplatin) | IC50, cell viability 72 h (AZD5363) | IC50, cell viability 72 h (Paclitaxel) | IC50, cell viability 72 h (Etoposide) | IC50, cell viability 72 h (AZD8186; max 10 µM) | IC50, cell viability 72 h (SRA737) | IC50, cell viability 72 h (Gemcitabine) | IC50, cell viability 72 h [1] | IC50, cell viability 72 h (5-Fluorouracil) | IC50, cell viability 72 h (AZD1775; max 1 µM) | IC50, cell viability 72 h (AZD0156; max 1 µM)
1 | LS-411N (Colorectal Carcinoma) | 7040 nM | 412 nM | 44.7 nM | > 10000 nM | > 300 nM | > 1000 nM | > 2000 nM | > 1 nM | > 1000 nM | > 300 nM | > 3000 nM | > 1000 nM | > 10000 nM | > 10000 nM | 42.4 nM | > 1000 nM | 169 nM | > 10000 nM | > 3000 nM | > 10000 nM | > 1000 nM | 4060 nM | > 1000 nM | > 10000 nM | > 10000 nM | 1340 nM | > 10000 nM | > 10000 nM | – | – | – | – | – | – | – | – | – | – | –
2 | MKN1 (Gastric Carcinoma) | – | 640 nM | > 1000 nM | > 10000 nM | > 300 nM | > 1000 nM | 560 nM | – | > 1000 nM | 124 nM | > 3000 nM | > 1000 nM | – | > 10000 nM | – | – | 343 nM | > 10000 nM | – | > 10000 nM | > 1000 nM | 2870 nM | > 1000 nM | > 10000 nM | 573 nM | > 10000 nM | > 10000 nM | > 10000 nM | > 10000 nM | > 10000 nM | 13.4 nM | 1250 nM | > 10000 nM | 4850 nM | 161 nM | > 5000 nM | > 20000 nM | – | –
3 | NB13 (Neuroblastoma) | > 10000 nM | – | > 1000 nM | > 10000 nM | > 300 nM | > 1000 nM | > 2000 nM | > 1 nM | > 1000 nM | 13.7 nM | – | 139 nM | 244 nM | > 10000 nM | 15.9 nM | 194 nM | 953 nM | > 10000 nM | > 3000 nM | 3970 nM | > 1000 nM | 2220 nM | > 1000 nM | > 10000 nM | > 10000 nM | > 10000 nM | > 10000 nM | > 10000 nM | > 10000 nM | – | – | 2430 nM | – | 3640 nM | > 300 nM | > 5000 nM | > 20000 nM | 322 nM | > 1000 nM
4 | NCI-H841 (Small Cell Lung Carcinoma) | – | 1690 nM | > 1000 nM | > 10000 nM | > 300 nM | > 1000 nM | > 2000 nM | – | > 1000 nM | > 300 nM | > 3000 nM | > 1000 nM | – | > 10000 nM | – | – | > 1000 nM | > 10000 nM | – | > 10000 nM | > 1000 nM | > 10000 nM | > 1000 nM | > 10000 nM | > 10000 nM | > 10000 nM | > 10000 nM | > 10000 nM | > 10000 nM | > 10000 nM | 26.6 nM | > 10000 nM | > 10000 nM | > 10000 nM | > 300 nM | > 5000 nM | > 20000 nM | – | –
5 | UACC-812 (Breast Carcinoma) | – | > 3000 nM | > 1000 nM | > 10000 nM | > 300 nM | > 1000 nM | > 2000 nM | > 1 nM | > 1000 nM | > 300 nM | > 3000 nM | > 1000 nM | > 10000 nM | > 10000 nM | 851 nM | > 1000 nM | > 1000 nM | 7470 nM | – | > 10000 nM | > 1000 nM | > 10000 nM | > 1000 nM | > 10000 nM | > 10000 nM | > 10000 nM | – | > 10000 nM | > 10000 nM | > 10000 nM | 1920 nM | 9330 nM | > 10000 nM | > 10000 nM | > 300 nM | > 5000 nM | > 20000 nM | – | –
